From ChEMBL document CHEMBL1136738, “Design, synthesis, and pharmacological profile of novel fused pyrazolo[4,3-d]pyridine and pyrazolo[3,4-b][1,8]naphthyridine isosteres: a new class of potent and selective acetylcholinesterase inhibitors” (J Med Chem, 2003) come the findings set out here.

In assay [1] the target is T1, Acetylcholinesterase (Rattus norvegicus, UniProt P37136).
T1 sequence (P37136 whole entry): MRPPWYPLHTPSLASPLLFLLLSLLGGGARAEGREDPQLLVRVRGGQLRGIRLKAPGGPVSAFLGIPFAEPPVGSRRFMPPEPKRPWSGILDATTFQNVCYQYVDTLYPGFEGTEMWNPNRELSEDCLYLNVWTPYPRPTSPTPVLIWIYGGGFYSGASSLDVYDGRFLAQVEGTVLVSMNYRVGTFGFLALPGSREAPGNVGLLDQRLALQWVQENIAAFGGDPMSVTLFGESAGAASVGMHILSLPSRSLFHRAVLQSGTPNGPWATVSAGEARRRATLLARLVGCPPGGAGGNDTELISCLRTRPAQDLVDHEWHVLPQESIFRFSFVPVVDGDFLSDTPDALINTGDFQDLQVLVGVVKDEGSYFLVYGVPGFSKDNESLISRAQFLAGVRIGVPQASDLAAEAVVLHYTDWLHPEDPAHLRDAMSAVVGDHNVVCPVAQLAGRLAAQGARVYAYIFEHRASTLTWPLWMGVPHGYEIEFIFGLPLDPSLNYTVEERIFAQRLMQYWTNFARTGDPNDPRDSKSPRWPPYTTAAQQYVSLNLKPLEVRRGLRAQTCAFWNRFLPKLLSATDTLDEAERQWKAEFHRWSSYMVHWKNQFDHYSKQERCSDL
Put plainly: Inhibitory activity against rat brain total Acetylcholinesterase (AChE) was determined using Ellman's method. (In Ellman's method for cholinesterases, released thiocholine reacts with DTNB.)

For assay [2], the target named is Butyrylcholinesterase (Rattus norvegicus, UniProt Q9JKC1).
Butyrylcholinesterase, sequence (Q9JKC1 whole entry): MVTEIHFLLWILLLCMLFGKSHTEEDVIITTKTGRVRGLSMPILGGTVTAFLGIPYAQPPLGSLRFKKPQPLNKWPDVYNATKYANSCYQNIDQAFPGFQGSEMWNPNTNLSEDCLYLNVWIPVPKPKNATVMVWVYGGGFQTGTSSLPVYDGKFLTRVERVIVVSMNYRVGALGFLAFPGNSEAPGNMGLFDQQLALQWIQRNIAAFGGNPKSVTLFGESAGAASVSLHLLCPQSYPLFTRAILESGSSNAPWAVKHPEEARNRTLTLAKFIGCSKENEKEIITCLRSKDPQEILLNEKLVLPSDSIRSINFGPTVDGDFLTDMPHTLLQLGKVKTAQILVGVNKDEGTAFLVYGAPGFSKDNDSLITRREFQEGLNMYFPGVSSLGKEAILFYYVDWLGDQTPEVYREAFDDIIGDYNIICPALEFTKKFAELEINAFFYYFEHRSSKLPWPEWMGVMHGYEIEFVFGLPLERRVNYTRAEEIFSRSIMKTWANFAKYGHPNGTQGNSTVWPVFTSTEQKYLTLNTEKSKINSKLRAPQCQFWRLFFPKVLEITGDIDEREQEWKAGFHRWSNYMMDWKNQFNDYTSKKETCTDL
Description: Inhibitory concentration against rat brain butyrylcholinesterase (BuChE) was determined using Ellman's method

For `Cc1nn(-c2ccccc2)c2c(N)c3c(nc12)CCC3`, inhibition in assay [1] was half-maximal at 32.2 µM (IC50).

As for `Cc1nn(-c2ccccc2)c2nc3c(c(N)c12)CCCC3`, the IC50 (as a rule, the midpoint of a concentration-inhibition curve) in assay [1] turned out to be 28.5 µM.

In the case of `COc1ccc2c3c1C[C@H]1C[C@@H](O)C=C[C@]31CCN(C)C2`, the IC50 in assay [1] stood at 3.1 µM.

Turning to `Cc1nn(-c2ccccc2)c2nc3nc4c(c(N)c3cc12)CCCC4`, the results for the 50% inhibitory concentration (IC50) in assay [2] and in assay [1] were 134 µM and 6.39 µM, respectively.

Compound `Cc1nn(-c2ccccc2)c2c(N)c3c(nc12)CCCC3` returned a half-inhibitory concentration (IC50) in assay [1] of 26.7 µM.

`Nc1c2c(nc3nn(-c4ccccc4)cc13)CCCC2`: the values for the 50% inhibitory concentration (IC50) in assay [2] and in assay [1] were 31.9 µM and 6.01 µM, respectively.

Consider `Cc1nn(-c2ccccc2)c2nc3c(c(N)c12)CCC3`, for which it took 31.2 µM to reach half-maximal inhibition in assay [1] (IC50). This counts as double-digit micromolar.

For the compound `Cc1nn(-c2ccccc2)c2nc3nc4c(c(N)c3cc12)CCC4`, in assay [1], the IC50 is 23.2 µM.
